Assay results: patent US20090264306A1, “DNA METHYLATION BIOMARKERS IN LYMPHOID AND HEMATOPOIETIC MALIGNANCIES” (Curators of the University of Missouri, priority 2005, published 2009)

Tested on: NHL lines RL, Daudi, DB, Raji, Granta 519 and Mec-1
Assay: Reactivation of methylated genes by DAC and TSA in NHL cell lines, real time RT-PCR
Assay type: cell-based, Human
Text: Cell Lines and Drug Treatments. Human NHL lines RL, Daudi, DB, Raji, Granta 519 and Mec-1 were maintained in RPMI 1640 media. The germinal center related cell line RL is derived from a patient with FL and the t(14,18) gene rearrangement (12), and Daudi and Raji cells are of germinal center derivation. The postgerminal center cell line DB is a DLBCL cell line that has undergone isotype switching (12). […] Granta 519 is an MCL cell line over-expressing cyclin D1 (13) and Mec-1 is a transformed B-CLL/SLL cell line (14). For gene reactivation experiments, cells were cultured in the presence of vehicle (PBS) or DAC (1.0 μM; medium changed every 24 h). After 4 days, cells were either harvested or further treated with TSA (1.0 μM) for 12 h and then harvested. Some cells were also treated with TSA alone for 12 h before harvest. Genomic DNA or total RNA was isolated using Qiagen™ kits (Qiagen, Valencia Calif.) and used for methylation and gene expression analysis, respectively.
Real-time RT-PCR. Total RNA (2 μg) was pre-treated with DNase I to remove potential DNA contaminants and reverse-transcribed in the presence of SuperScript III™ reverse transcriptase (Invitrogen, Carlsbad, Calif.). The generated cDNA was used for PCR amplification with the system described above. The Taqman™ probe and primer sets for real time PCR were purchased from Applied Biosystems (Foster City, Calif.). Separate parallel reactions were run for GAPDH cDNA using a series of diluted cDNA samples as templates to generate standardization curves. The mRNA levels were derived from the standardization curves and expressed as relative changes after normalization to those of GAPDH.

[1] = NHL cell lines, DAC 1.0 μM 4 days, TSA 1.0 μM 12 h, normalized to GAPDH, combination effect in most of the cell lines

## Nc1ncn([C@H]2C[C@H](O)[C@@H](CO)O2)c(=O)n1 [DAC, 5-aza-2-deoxycytidine]
Granta 519 cell line, DAC alone
  CCND1 expression: down regulated
[1]
  CYP27B1 gene expression after treatment: weakly to moderately up-regulated
  RARβ2 gene expression after treatment: weakly to moderately up-regulated
